# Test results published in patent US6423541B1, “Process for in vitro selection of high methol producing genotypes” (Council of Scientific&Industrial Reaearch, priority 2000, dated 2002).
# Columns and labels:
# [1] = test system: calliclones (regenerated shoots) of Mentha arvensis cv. Himalaya; assay: Large scale stepwise screening of calliclones on menthol screening medium; assay type: cell-based
# Description: Large scale screening of clones was carried out in various batches by raising the calliclones as above. A total of 2850 shoots were transferred to the screening medium containing 50 μg ml^−1 menthol and incubated for 1 week. The surviving shoots from this medium were stepwise transferred to media containing higher concentrations of menthol ([…]). Finally the tolerant clones surviving at 70 μg ml^−1 menthol concentration were transferred individually to MS basal medium containing vitamins for rooting. The looted plantlets were subsequently hardened and transferred to pots in the glass house to raise sufficient planting material (sucker) for field experiments.
# After 7 days of culture 1263 twigs survived at 50 μg ml^−1 concentration of menthol. These surviving shoots were subsequently transferred to the medium containing 60 μg ml^−1 menthol At this concentration 942 twig turned brown and died within 7 days. Finally, the 321 twigs which survived were inoculated into the screening medium containing 70 μg ml^−1 menthol. In His tertiary level screening, only 30 shoots survived (Table 5). These clones were inoculated into the rooting medium and after rooting transferred to pots in the glasshouse. The acclimatized selected plantlets from the glasshouse were transferred to the field for sucker production in the month of September 1997. In the month of January 1998, the suckers developed from each plant were field planted with 5 replicates using randomized block design. The plants grown with standard agronomic practices were harvested twice, first after 110 days of planting and subsequently 70 days after the first harvest. Ultimately, these 30 menthol tolerant clones were multiplied and grown in the field in replicated plots of 5 m×5 m sizes. The twigs of 30 clones from the replicated trials were rechecked for tolerant phenotypes at a concentration of 70 μg ml^−1 menthol wherein, these survived even after 7 days. These were also tested for survival at one step higher concentration of menthol (80 μg ml^−1). At this concentration of menthol only 5 clones (GRB 3, 14, 24, 27, 30) survived.
# 2. Large scale screening of the heterogeneous population of molecular variants were carried out by inoculating the regenerated independent clones into the screening medium i.e., MS basal agar containing 50 μg ml^−1 menthol followed by incubation for 1 week.
# 3. The surviving shoots from this medium were step-wise transferred to media containing higher concentrations of menthol (60 and 70 μg ml^−1). Finally the tolerant clones surviving at 70 μg ml^−1 menthol concentration (which cause 99% killing) are transferred individually to MS basal medium containing vitamins for rooting.
# [2] = test system: regenerated shoots of Mentha arvensis varieties; assay: whole plant or invertebrate; assay type: cell-based; settings: 168 h, read-out: mortality of shoots
# From the text: The plant varieties analysed were Himalaya, Shivalik, Gomti, MAS-1, Kosi, Kalka of Mentha arvensis L. (2n=96). The suckers of these plant varieties were obtained from CIMAP's national gene bank for medicinal and aromatic plants for planting. The explant materials were collected from the field grown plants and surface sterilized by washing sequentially with 2% detergent, distilled water containing a few drops of Savlon (Johnson and Johnson, India), 0.1% acidified mercuric chloride and autoclaved distilled water before inoculation. About 1 cm long internodal pieces were inoculated in the MS medium (Murasighe and Skoog, 1962) containing vitamins, 100 mg l^−1 myo-inositol 3% wv^−1 sucrose, 1.5% wv^−1 agar (Difco), 0.5 .μg ml^−1 of an auxin, (NAA, 1-napthalene acetic acid) and 5 μg ml^−1 of a cytokinin (BAP, benzyl aminopurine) (Shasany et al, 1998). The cultures were grown at 25±2° C. and 400 to 600 lux light intensity with 16 h photoperiod. The regenerated shoots were separated 12 weeks after the explant inoculation for rooting and/or testing menthol tolerance.
# The regenerated shoots (3-4 cm long, containing the apical bud and 2-3 nodes) separated after 12 weeks, were inoculated into MS basal medium with or without menthol (0 to 100 μg ml^−1). […] The wilting response and lethality in explants was recorded every 24 hours over a period of one week.
smiles,measurement,setting,value
CC1CCC(C(C)C)C(O)C1 (stereo not shown) [menthol],twigs survived,"[1]; menthol 50 μg ml^−1, after 7 days of culture, of a total of 2850 shoots",1263
same,twigs which survived,"[1]; menthol 60 μg ml^−1, of the 1263 survivors of 50 μg ml^−1",321
same,twigs turned brown and died,"[1]; menthol 60 μg ml^−1, within 7 days, of the 1263 survivors of 50 μg ml^−1",942
same,killing,[1]; menthol 70 μg ml^−1,99%
same,shoots survived,"[1]; menthol 70 μg ml^−1, tertiary level screening of 321 twigs",30
same,clones survived,"[1]; menthol 80 μg ml^−1, twigs of the 30 selected tolerant clones from field trials",5
same,mortality at 80 ppm,[2],100%
